The source of these data is patent US7138389B2, “Oral androgen therapy using modulators of testosterone bioavailability” (University of Washington, priority 2004, dated 2006).

Where two headings read alike, the source gives them in different places. Marks after values point to notes of the source that are not given here. Where a SMILES comes first, the peptide text is derived from it. [ ]: non-standard residue; d: D form. dPhe(4-NH2) = Nc1ccc(C[C@@H](N)C(=O)O)cc1; dPhe(4-Cl) = N[C@H](Cc1ccc(Cl)cc1)C(=O)O; Phe(4-NH2) = Nc1ccc(C[C@H](N)C(=O)O)cc1; d2Nal = N[C@H](Cc1ccc2ccccc2c1)C(=O)O; Lys(iPr) = CC(C)NCCCC[C@H](N)C(=O)O; d3Pal = N[C@H](Cc1cccnc1)C(=O)O

One series concerns 5-α-reductase. The settings on record: cited from earlier work.
For series [1] the following is noted: men receiving testosterone by intramuscular administration; cited from earlier work.
For series [2] the following is noted: cited from earlier work.
A short description of series [3]: Serum testosterone pharmacokinetics after single oral doses of testosterone or testosterone enanthate in oil with and without dutasteride (Example 2). To be noted: for maximum concentration of testosterone versus normal range: normal range 8.7–33 nmol/L; for serum testosterone after oral administration in oil: 200, 400, 800 mg, all men; for Testosterone AUC (area under-the-curve): serum testosterone, mean ± SD. Here is the method:
(§1) Study Design: Participants were randomly assigned to one of two groups: 1) oral testosterone in sesame oil, or 2) oral testosterone enanthate in sesame oil (Delatestryl, BTG Pharmaceuticals, Iselin, N.J.) at a concentration of 200 mg/ml. A sample size of seven subjects per group was estimated to have an 80% power with an α of 0.05 to detect a 50% in the change in serum testosterone area-under-the curve between doses. The oral testosterone enanthate in sesame oil was manufactured by the compounding pharmacy at the University of Washington. Briefly, micronized testosterone (U.S.P. grade, Spectrum Quality Projects, Gardena, Calif., USA) was suspended at 100 mg/ml in sesame oil (N.F. grade, Spectrum Quality Projects, Gardena, Calif., USA), and mixed thoroughly on a magnetic stir plate to create a homogenous testosterone enanthate/sesame oil emulsion. The compounding pharmacist then drew up the emulsion into syringes at the desired dose levels (200, 400 and 800 mg). The dose of oral testosterone enanthate in sesame oil was normalized for the testosterone content, so that the subjects in the testosterone enanthate group (molecular weight 397) were administered 276, 554 and 1108 mg of testosterone enanthate, corresponding to 200, 400 and 800 mg of testosterone.
(§2) The drug exposure period lasted 12 days (FIG. 6). […] One, two and three days after acyline administration, as per the protocol of FIG. 6, subjects drank 200, 400 or 800 mg of testosterone or testosterone enthanate in oil, mixed with 8 oz of whole milk. These doses were repeated days eight, nine and ten days after the acyline injection. […] For safety, subjects underwent daily testing of liver function (AST, bilirubin, alkaline phosphatase), kidney function (BUN, creatinine) and hematopoiesis (hemoglobin and hematocrit).
(§3) Total serum testosterone was measured by a radioimmunoassay (Diagnostic Products Corporation, Los Angeles, Calif.). […] The normal range was 8.7–33 nmol/L. DHT was measured using an RIA Kit (Diagnostic Systems Laboratory, Los Angeles, Calif.). The sensitivity of this assay was 0.043 nmol/L and the intra-assay variation for mid and low-range pools was 9.9% and 11%, with interassay coefficients of variations of 19 and 25%. […] The normal range was 3.2–47 nmol/L. The normal ranges for testosterone, DHT and SHBG were determined in our laboratory using serum samples obtained from 100 normal men aged 20–50 years.
Statistics: Hormone were log transformed prior to analysis. […] Changes between groups were analyzed by ANOVA. Statistical analyses were performed using STATA ([…], Tex., USA). Type I error was set at 0.05 for all analyses.

Series [4] is described as follows: Serum DHT pharmacokinetics after single oral doses of testosterone or testosterone enanthate in oil with and without dutasteride (Example 2). To be noted: 200, 400, 800 mg; all men. Here is the method:
as §1, with “The compounding pharmacist then drew up the emulsion into syringes at the desired dose levels (200, 400 and 800 mg). The dose of oral testosterone enanthate in sesame oil was normalized for the testosterone content, so that the subjects in the testosterone enanthate group (molecular weight 397) were administered 276, 554 and 1108 mg of testosterone enanthate, corresponding to 200, 400 and 800 mg of testosterone.” left out
Total serum testosterone was measured by a radioimmunoassay (Diagnostic Products Corporation, Los Angeles, Calif.). […] The normal range was 8.7–33 nmol/L. DHT was measured using an RIA Kit (Diagnostic Systems Laboratory, Los Angeles, Calif.). […] The normal range was 3.2–47 nmol/L. The normal ranges for testosterone, DHT and SHBG were determined in our laboratory using serum samples obtained from 100 normal men aged 20–50 years.
Statistics: Hormone were log transformed prior to analysis. […] Changes between groups were analyzed by ANOVA. […]

The conditions of series [5]: in vivo; cited from earlier work.
Series [6] has as its system serum proteins (SHBG, albumin). The settings on record: cited from earlier work.
Details of series [7]: species or system human. The settings on record: in vivo. An excerpt:
The drug exposure period lasted 12 days (FIG. 6).

For series [8], the system named is endogenous testosterone production. Kind of series: Suppression of endogenous testosterone production by GnRH antagonist acyline. The series is classed as in vivo, human. As for the experimental part:
as §2, §3

For series [9] the test system is unchanged. To be noted: cited from earlier work.

For `CC(C)(C)NC(=O)[C@H]1CC[C@H]2[C@@H]3CC[C@H]4NC(=O)C=C[C@]4(C)[C@H]3CC[C@]12C` [finasteride, (5α,17beta)-N-(1,1-dimethylethyl)-3-oxo-4-azaandrost-1-ene-17-carboxamide], in the series with 5-α-reductase (administration of finasteride), the “reduction of prostate DHT levels” value is on record as 90% and the “reduction of serum DHT levels” value was 70%. Moreover, the “increase of testosterone levels” value in the series on 5-α-reductase (men given finasteride (Gormley et al.)) is “about 10%”. In [1], the “levels of serum testosterone” value is listed as “without substantial effect”.
Consider `CCCCCCCCCCC(=O)O[C@H]1CC[C@H]2[C@@H]3CCC4=CC(=O)CC[C@]4(C)[C@H]3CC[C@]12C` [Testosterone undecanoate], for which the “effect of food intake on absorption” value in [2] (oral (Bagchus et al.)) is “dramatically improved”. Moreover, in series [2] (oral), the “serum DHT on oral TU therapy” value is on record as “well above the normal range” and the “serum testosterone on oral TU therapy” value is “therapeutic increases”.
For `CCCCCCC(=O)O[C@H]1CC[C@H]2[C@@H]3CCC4=CC(=O)CC[C@]4(C)[C@H]3CC[C@]12C` [Testosterone Enanthate-only, testosterone enanthate], the “maximum concentration of testosterone versus normal range” value in [3] (400 mg oral dose in oil) and in [3] (800 mg oral dose in oil) was “exceeding the normal range” throughout. Moreover, the “serum testosterone after oral administration in oil” value in [3] was “significantly increased in all men in a dose-dependent fashion”. Moreover, the “serum DHT after oral administration in oil” value in [4] is on record as “significantly increased the serum DHT in all men in a dose-dependent fashion”.
`C[C@]12CC[C@H]3[C@@H](CCC4=CC(=O)CC[C@@]43C)[C@@H]1CC[C@@H]2O` [Testosterone-only, testosterone]: the “maximum concentration of testosterone versus normal range” value in series [3] (800 mg oral dose in oil) was “exceeding the normal range”. In addition, the “serum testosterone after oral administration in oil” value in [3] is “significantly increased in all men in a dose-dependent fashion”. Also, the “Testosterone AUC (area under-the-curve)” value was 124 ± 28 nmol·h/L in [3] (single oral dose 200 mg in oil); 124 ± 28 nmol·h/L in series [3] (single oral dose 200 mg in oil, listed as testosterone-alone); 208 ± 74^a nmol-hours/L in series [3] (single oral dose 400 mg in oil); 208 ± 74 nmol·h/L in series [3] (single oral dose 400 mg in oil, listed as testosterone-alone); 328 ± 72^a nmol-hours/L in [3] (single oral dose 800 mg in oil); 328 ± 82 nmol·h/L in series [3] (single oral dose 800 mg in oil, listed as testosterone-alone). Further, in series [4], the “serum DHT after oral administration in oil” value is “significantly increased the serum DHT in all men in a dose-dependent fashion”. Besides, the “half-life of testosterone, reported values” in series [5] is 10 to 100 min. In addition, in series [6], the “blood testosterone bound to serum proteins” value was “About 98%”. Moreover, in series [6], the “circulating plasma testosterone bound to sex hormone-binding globulin (SHBG)” value was “Approximately 40%”. The “circulating plasma testosterone unbound (free)” value in series [6] (plasma) is 2%. Moreover, the “effect on serum testosterone levels” value in series [2] (200 mg doses of oral testosterone, for up to eight hours) is “elevate serum testosterone levels to the low normal range”; in [2] (oral unmodified testosterone at doses up to 100 mg, deficient men) it was “little effect”.
As to `CC(=O)Nc1ccc(C[C@H](NC(=O)[C@H](CO)NC(=O)[C@@H](Cc2cccnc2)NC(=O)[C@@H](Cc2ccc(Cl)cc2)NC(=O)[C@@H](Cc2ccc3ccccc3c2)NC(C)=O)C(=O)N[C@H](Cc2ccc(NC(C)=O)cc2)C(=O)N[C@@H](CC(C)C)C(=O)N[C@@H](CCCCNC(C)C)C(=O)N2CCC[C@H]2C(=O)N[C@H](C)C(N)=O)cc1` [acyline] (Ac-[d2Nal][dPhe(4-Cl)][d3Pal]S[Phe(4-NH2)](Ac)[dPhe(4-NH2)](Ac)L[Lys(iPr)]P[dA]-NH2), the injection-site reaction result in series [7] is reported as “transient pruritis”. Further, the “serum DHT 24 hours after acyline administration (day 1)” value in series [8] (all subjects, Day 0 DHT 1.6±0.6, P<0.05) stood at 0.6 ± 0.2 nmol/L. The “serum testosterone 24 hours after acyline administration (day one)” value in series [8] (all subjects, acyline 300 mcg/kg SQ, day zero 20.0±7.4, P<0.0001) came out at 2.3 ± 0.5 nmol/L. In series [8] (testosterone enanthate group), the “serum DHT 24-hours post acyline” value stood at 0.6 ± 0.2 nmol/L and the “serum testosterone 24-hours post acyline” value was 2.3 ± 0.8 nmol/L. Also, in [8] (testosterone group), the “serum DHT 24-hours post acyline” value is 0.5 ± 0.2 nmol/L and the “serum testosterone 24-hours post acyline” value stood at 2.3 ± 0.7 nmol/L. Moreover, the “duration of suppression of endogenous testosterone production in men” value in series [9] (previously shown (Herbst et al.)) is 2 weeks. The “duration of suppression of testosterone production in normal men” value in series [9] (single injection 300 mcg/kg SQ) is at least 15 days.
